We go through 3 compounds from US7138145B2, “Method and apparatus for ozination of grain” (priority 2001, dated 2006).

The subject of assay [1] is insects. In words: ozonation of grain stored in an elevator: killing of insects. The text has this: (§1) It is an object of some embodiments of the present invention to provide a method for treating grain for fungus, mold, bacteria, dust, and insects by exposing the grain to a high concentration of ozone for an extended period of time. The present invention utilizes a powerful fan or fans placed at the bottom of the grain storage facility such as, for example, a silo or grain elevator to draw down through the grain a flow of gas containing ozone between 50 and 100 ppm. Ozone generators placed in the head space at the top of the elevator produce ozone in a concentration in excess of 100 ppm. Monitors placed in this head space assure that the ozone concentration remains at these levels. If the ozone generators are not capable of maintaining the concentration at 100 ppm in the head space, then the draw is reduced by slowing the fan speed. A duct takes drawn gases from the bottom of the elevator and re-circulates those gases into the head space to reduce the amount of ozone needed to be generated during a second pass. To assure that the gases come in contact with all of the grain in the elevator, a technique labeled “pulling the core” is utilized wherein a quantity of grain is removed from the bottom of the elevator at its center to remove a column of grain from the core of the column of grain thereby evenly distribute the grain within the elevator. The material which is pulled from the core is then sent back to the top of the column and evenly distributed across the top.
(§2) The following discussion is directed towards grain stored within a vertical elevator 10. […] In one embodiment, a quantity of ozone is injected into a grain bin, vessel, or truck prior to the grain being loaded into said container in order to treat the grain for mold, bacteria, fungi, and biological load as the grain is loaded. […] In this embodiment, the loading bin is partially enclosed and has injected therein a sufficient quantity of ozone to create a concentration of approximately 100 ppm within the loading bin and the enclosed auger. […]

In assay [2] the test system is mold, bacteria, and fungus. In words: ozonation of grain stored in an elevator: treatment of mold, bacteria and fungus.
Description: as §1, §2

Assay [3] has as its system insects. To be noted: fumigation of the grain; cited from earlier work.
The subject of assay [4] is mold, fungus, and some bacteria. To be noted: fumigation of the grain; cited from earlier work.
Setting [5] is: flow of gas containing ozone between 50 and 100 ppm.
The mark [6] stands for this setting: ozone concentration maintained for three days.
[7] abbreviates: ozone drawn through grain, over 100 ppm in head space, 50 ppm at bottom of column.

In the case of `O=[O+][O-]` [ozone], the “time within which some insects begin to die” value with insects [1] (setting [5]) was “twenty-four”. Moreover, the destruction of insects entry in the assay on insects [1] (setting [6]) is “almost all insect, mold, bacteria, and fungus will be destroyed”. Also, in the assay on insects [1] (setting [7]), the “exposure after which some insects are killed” value worked out at 12 h. Besides, the “time within which mold and bacteria begin to die” value in assay [2] (setting [5]) is recorded as “twenty-four”. In addition, the “destruction of mold, bacteria and fungus” value in assay [2] (setting [6]) is “almost all insect, mold, bacteria, and fungus will be destroyed”. The “time after which smell from mold and fungus disappears” value in assay [2] (setting [7]) is 24 h.
For the compound `CBr` [methyl bromide], the “effect of fumigation on insects” value in the assay with insects [3] is on record as “effective at killing insects”. The “effect of fumigation on mold, fungus and some bacteria” value in assay [4] is “not been effective”.
On to `P` [phosphine], for which, in the assay on insects [3], the “effect of fumigation on insects” value is “effective at killing insects”. In addition, the “effect of fumigation on mold, fungus and some bacteria” value in assay [4] is listed as “not been effective”.
